# Measured values published in patent US9854804B2, “Antifungal composition comprising polycyclic peptide compound and method for preparing the same” (KOREAN RESEARCH INSTITUTE OF BIOSCIENCE AND BIOTECHNOLOGY, priority 2011, dated 2018).
# Read-outs that look alike come from different tables or passages of the source.
# What was measured:
# [1] = system: Entercoccus faecium KCTC 5191; test: Broth microdilution antibacterial activity (MIC); assay type: cell-based; settings: Enterococcus faecium, KCTC5191
# Experimental: (§1) Test strains were maintained in MHB (Mueller Hinton broth), and antibacterial activity was measured using a broth microdilution method. After being incubated overnight, each of the test stains was diluted to a population of 2×100,000 cells/ml, and aliquoted in an amount of 100 μl per well into 96-well plates. Complestatin, neuroprotectin A and positive controls such as vancomycin, oxacillin and nofloxacin were treated at concentration with gradual dilution by 2-fold from maximum concentration of 128 μg/ml. Each compound was diluted in dimethylsulxoside (DMSO), and the concentration of DMSO was adjusted to approximately 1/100 before application. After incubation for 20 hrs, absorbance was read at 650 nm to examine the growth of bacterial cells.
# [2] = system: Bacillus subtilis KCTC 1021; test: Broth microdilution antibacterial activity (MIC); assay type: cell-based; settings: KCTC1021
# Experimental: as §1
# [3] = system: Entercoccus faecium KCTC 3511; test: Broth microdilution antibacterial activity (MIC); assay type: cell-based; settings: Enterococcus faecium, KCTC3511
# Experimental: as §1
# [4] = system: Staphylococcus aureus 209; test: Broth microdilution antibacterial activity (MIC); assay type: cell-based
# Experimental: as §1
# [5] = system: Staphylococcus epidermidis KCTC 3958; test: Broth microdilution antibacterial activity (MIC); assay type: cell-based; settings: KCTC3958
# Experimental: as §1
# [6] = system: Bacillus cereus KCTC 1661; test: Broth microdilution antibacterial activity (MIC); assay type: cell-based; settings: KCTC1661
# Experimental: as §1
# [7] = system: Staphylococcus aureus RN 4220; test: Broth microdilution antibacterial activity (MIC); assay type: cell-based
# Experimental: as §1
# (§2) The compounds of the present invention, complestatin and neuroprotectin A were examined for antibacterial activity against vacomycin-resistant bacteria in the same manner as in Example 4, and the results are given in Table 4, below.
# MRSA CCARM 3506 = test: Broth microdilution antibacterial activity (MIC); assay type: cell-based, Methicillin-resistant Staphylococcus aureus; settings: Staphylococcus aureus
# Experimental: as §1
# MRSA CCARM 3167 = test: Broth microdilution antibacterial activity (MIC); assay type: cell-based, Methicillin-resistant Staphylococcus aureus; settings: Staphylococcus aureus
# Experimental: as §1
# VRSA 48 = test: Antibacterial activity against vancomycin-resistant bacteria (MIC); assay type: cell-based, Vancomycin-resistant S. aureus; settings: Staphylococcus aureus
# Experimental: as §1, §2
# QRSA CCARM 3519 = test: Broth microdilution antibacterial activity (MIC); assay type: cell-based, Quinolone-resistant Staphylococcus aureus; settings: Staphylococcus aureus, CCARM3519
# Experimental: as §1
# QRSA CCARM 3505 = test: Broth microdilution antibacterial activity (MIC); assay type: cell-based, Quinolone-resistant Staphylococcus aureus; settings: Staphylococcus aureus, CCARM3505
# Experimental: as §1
# VRE 11 = test: Antibacterial activity against vancomycin-resistant bacteria (MIC); assay type: cell-based; settings: Enterococcus
# Experimental: as §1, §2
# VRE 7 = test: as above; assay type: cell-based; settings: Enterococcus
# Experimental: as §1, §2
# VRE 3 = test: as above; assay type: cell-based; settings: Enterococcus
# Experimental: as §1, §2
# [8] = system: Vancomycin-resistant S. aureus (VRSA) and Vancomycin-resistant Enterococcus (VRE); test: Antibacterial activity, vancomycin-resistant bacteria of Table 4; assay type: cell-based
# Experimental: as §1, §2
# [9] = system: Staphylococcus aureus, Bacillus subtilis, Bacillus cereus, Enterococcus faecium and Staphylococcus epidermis, MRSA, QRSA; test: Antibacterial activity, summary over the panel of Table 3; assay type: cell-based
# Experimental: as §1
# [10] = Entercoccus faecium KCTC 5191, read-out: MIC
# [11] = Bacillus subtilis KCTC 1021, read-out: MIC
# [12] = Entercoccus faecium KCTC 3511, read-out: MIC
# [13] = Staphylococcus aureus 209, 20 hrs incubation, MHB, read-out: MIC
# [14] = Staphylococcus epidermidis KCTC 3958, read-out: MIC
# [15] = Bacillus cereus KCTC 1661, read-out: MIC
# [16] = RN4220, Staphylococcus aureus RN 4220, Table 3, read-out: MIC
# [17] = against VRSA and VRE (text summary of Table 4), read-out: MIC
Compound,"MIC [1, 10] [µg/mL]","MIC [2, 11] [µg/mL]","MIC [3, 12] [µg/mL]","MIC [4, 13] [µg/mL]","MIC [5, 14] [µg/mL]","MIC [6, 15] [µg/mL]","MIC [7, 16] [µg/mL]","MIC ([7]; S. aureus RN 4220, Table 4) [µg/mL]","MIC (MRSA CCARM 3506; MRSA CCARM 3506, read-out: MIC) [µg/mL]","MIC (MRSA CCARM 3167; MRSA CCARM 3167, read-out: MIC) [µg/mL]","MIC (VRSA 48; VRSA 48, read-out: MIC) [µg/mL]","MIC (QRSA CCARM 3519; QRSA CCARM 3519, read-out: MIC) [µg/mL]","MIC (QRSA CCARM 3505; QRSA CCARM 3505, read-out: MIC) [µg/mL]","MIC (VRE 11; VRE 11, read-out: MIC) [µg/mL]","MIC (VRE 7; VRE 7, read-out: MIC) [µg/mL]","MIC (VRE 3; VRE 3, read-out: MIC) [µg/mL]","MIC [8, 17] [µg/mL]",MIC [9] [µg/mL],further results
CCn1cc(C(=O)O)c(=O)c2cc(F)c(N3CCNCC3)cc21 [Norfloxacin],4,0.25,4,0.25,0.5,1,1,1,1,8,200,125,250,200,50,50,,,
CN[C@H](CC(C)C)C(=O)N[C@H]1C(=O)N[C@@H](CC(N)=O)C(=O)N[C@H]2C(=O)N[C@H]3C(=O)N[C@H](C(=O)N[C@H](C(=O)O)c4cc(O)cc(O)c4-c4cc3ccc4O)[C@H](O)c3ccc(c(Cl)c3)Oc3cc2cc(c3O[C@@H]2O[C@H](CO)[C@@H](O)[C@H](O)[C@H]2O[C@H]2C[C@](C)(N)[C@H](O)[C@H](C)O2)Oc2ccc(cc2Cl)[C@H]1O [Vancomycin],,,,,,,,1,,,,,,,,,,,"MIC ([8]; VRE): > 200 µg/mL; MIC [1]: 1 µg/mL; MIC ([2]; Bacillus subtilis): 0.125 µg/mL; MIC [3]: 2 µg/mL; MIC ([4]; Staphylococcus aureus, 209, 20 h): 0.5 µg/mL; MIC ([5]; Staphylococcus epidermidis): 2 µg/mL; MIC ([6]; Bacillus cereus): 1 µg/mL; MIC ([7]; Staphylococcus aureus, RN4220): 1 µg/mL; MIC (MRSA CCARM 3506): 0.5 µg/mL; MIC (MRSA CCARM 3167): 2 µg/mL; MIC (VRSA 48; VRSA): > 200 µg/mL; MIC (QRSA CCARM 3519): 1 µg/mL; MIC (QRSA CCARM 3505): 1 µg/mL; MIC (VRE 11; VRE): > 200 µg/mL; MIC (VRE 7; VRE): > 200 µg/mL; MIC (VRE 3; VRE): > 200 µg/mL"
CN1C(=O)C(c2cc(Cl)c(O)c(Cl)c2)NC(=O)C2NC(=O)C(c3cc(Cl)c(O)c(Cl)c3)NC(=O)C(NC(=O)C(=O)c3cc(Cl)c(O)c(Cl)c3)Cc3c[nH]c4cc(ccc34)-c3cc2cc(c3O)Oc2ccc(cc2)CC1C(=O)NC(C(=O)O)c1ccc(O)cc1 (centres unmarked) [Complestatin],2,0.5,2,2,2,0.5,1,1,1,1,1,2,1,1,1,1,1,0.5 to 2,
Cc1onc(-c2ccccc2)c1C(=O)N[C@@H]1C(=O)N2[C@@H]1SC(C)(C)[C@@H]2C(=O)O [Oxacillin],4,0.25,8,0.25,0.25,32,0.25,0.25,500,500,> 200,0.5,0.5,> 200,> 200,> 200,> 200,,
CN1C(=O)C(c2cc(Cl)c(O)c(Cl)c2)NC(=O)C2NC(=O)C(c3cc(Cl)c(O)c(Cl)c3)NC(=O)C(NC(=O)C(=O)c3cc(Cl)c(O)c(Cl)c3)CC3C(=O)Nc4cc(ccc43)-c3cc2cc(c3O)Oc2ccc(cc2)CC1C(=O)NC(C(=O)O)c1ccc(O)cc1 (centres unmarked) [Neuroprotectin A],2,0.5,2,2,2,0.5,1,1,1,1,1,2,1,1,1,1,1,0.5 to 2,
